Tests used:
[1] = biological target: T1, Prostaglandin G/H synthase 1 (Ovis aries, UniProt P05979); experiment: Inhibition of ovine COX1 by enzyme immuno assay
T1 sequence (P05979 whole entry): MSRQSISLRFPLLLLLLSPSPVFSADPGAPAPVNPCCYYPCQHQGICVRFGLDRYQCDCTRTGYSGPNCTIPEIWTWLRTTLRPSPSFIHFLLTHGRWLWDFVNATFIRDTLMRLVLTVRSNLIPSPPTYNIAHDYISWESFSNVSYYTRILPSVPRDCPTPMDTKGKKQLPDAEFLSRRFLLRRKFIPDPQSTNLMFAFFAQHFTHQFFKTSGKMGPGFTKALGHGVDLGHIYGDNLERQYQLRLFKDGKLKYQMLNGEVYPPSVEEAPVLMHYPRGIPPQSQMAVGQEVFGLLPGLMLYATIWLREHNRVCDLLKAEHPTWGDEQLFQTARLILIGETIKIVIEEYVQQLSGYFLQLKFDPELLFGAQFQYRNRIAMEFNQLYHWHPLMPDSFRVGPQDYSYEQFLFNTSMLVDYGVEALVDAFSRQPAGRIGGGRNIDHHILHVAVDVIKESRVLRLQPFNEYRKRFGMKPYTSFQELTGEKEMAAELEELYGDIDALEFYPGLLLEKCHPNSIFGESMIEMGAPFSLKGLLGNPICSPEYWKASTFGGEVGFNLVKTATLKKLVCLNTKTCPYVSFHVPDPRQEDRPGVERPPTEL

Rattus norvegicus = experiment: Antiinflammatory activity against carrageenan-induced foot paw edema in orally dosed rat after 3 hrs; type: functional; details: po, read-out: ID50 (the source's name)
Ovis aries = species: Ovis aries; experiment: Selectivity index, ratio of IC50 for ovine COX1 to IC50 for ovine COX2

| IC50 [1] [µM] | Ratio IC50 (Ovis aries) | Structure (SMILES) | ED50 (Rattus norvegicus) [mg/kg] |
| --- | --- | --- | --- |
| > 100 | > 3.1 | CS(=O)(=O)c1cccc(C#Cc2cccnc2)c1 | – |
| 3.2 | – | CS(=O)(=O)c1ccc(C#Cc2cccnc2)cc1 | 59.9 |
| 0.26 | – | CS(=O)(=O)c1ccccc1C#Cc1ccncc1 | – |
| 3.9 | – | NS(=O)(=O)c1ccc(C#Cc2ccncc2)cc1 | – |
| > 100 | – | Cc1cccnc1C#Cc1ccc(S(C)(=O)=O)cc1 | – |
| > 100 | > 312 | CS(=O)(=O)c1cccc(C#Cc2ccncc2)c1 | – |
| 0.28 | – | CS(=O)(=O)c1ccccc1C#Cc1ccccn1 | – |

Continued, compound first:

| Structure (SMILES) | IC50 [1] [µM] | Ratio IC50 (Ovis aries) | ED50 (Rattus norvegicus) [mg/kg] |
| --- | --- | --- | --- |
| CS(=O)(=O)c1cccc(C#Cc2ccccn2)c1 | 31.6 | – | 76.4 |
| NS(=O)(=O)c1ccc(C#Cc2ccccn2)cc1 | 9.3 | – | – |
| Cc1cccnc1C#Cc1ccccc1S(C)(=O)=O | 2 | – | – |
| CC(=O)Oc1ccccc1C(=O)O [ASPIRIN] | – | – | 129 |
| Cc1cccnc1C#Cc1ccc(S(N)(=O)=O)cc1 | 1.3 | – | 76.6 |
| CS(=O)(=O)c1ccc(C#Cc2ccccn2)cc1 | 31.7 | – | – |

From ChEMBL document CHEMBL1143974, “Synthesis and cyclooxygenase inhibitory activities of linear 1-(methanesulfonylphenyl or benzenesulfonamido)-2-(pyridyl)acetylene regioisomers” (Bioorg Med Chem, 2008)
